Reference: paper PMC6368365, “Didehydro-Cortistatin A Inhibits HIV-1 by Specifically Binding to the Unstructured Basic Region of Tat” (mBio, 2019)

Molecular target: T1, Hexim-1 binding to 7SK snRNP (Homo sapiens, UniProt O94992)
T1 construct: endogenous in cells; host or cells: HeLa-CD4-LTR-LacZ (RNA immunoprecipitation); HeLa-CD4-LTR-Luc (immunofluorescence)
Test: RNA immunoprecipitation of 7SK snRNP by intracellular Hexim-1
Type: cell-based
Details: HeLa-CD4-LTR-LacZ cells, 48 h
Excerpt: (A) Sequence of the basic domains of HIV Tat HXB3, HIV Rev Bru and intracellular Hexim-1. […] Shown is confocal microscopy analysis of the subcellular localization of transfected FLAG-Tat or FLAG-Rev in the presence of DMSO or dCA in HeLa-CD4-LTR-Luc cells. Proteins were recognized with anti-FLAG and Alexa Fluor 568-tagged anti-IgG. Magnification 60×. Data are representative of n = 2 independent experiments. (C) Quantification of the nucleolar fluorescence of panel B using ImageJ. Data are the mean ± SEM from 3 to 4 different cells. […] HeLa-CD4-LTR-LacZ cells were infected with strain NL4-3 for 24 hours. The next day, compounds (dCA, 10 nM; KPT, 400 nM; and SCM, 10 nM) were added for 24 hours. Total, nuclear, and cytoplasmic mRNAs were extracted, and viral messages were determined by qRT-PCR. GAPDH was used for normalization. Data are the mean ± SD from n = 5 independent experiments. […] (G) Quantification of nuclear fluorescence of panel F using ImageJ. […] Statistical significance was determined using one-way ANOVA with post hoc Tukey’s test. ns, not significant; ***, P < 0.0001; **, P < 0.001.
Hexim-1 directly binds to cyclin T1 and is responsible for the inactivation of the kinase activity of P-TEFb ([35], [36]). […] Intracellular Hexim-1 was immunoprecipitated, and 7SK snRNP bound to Hexim-1 was extracted, reverse transcribed, and quantified by qRT-PCR as previously described ([42]) (Fig. 3E). […]

T1 sequence (O94992 whole entry): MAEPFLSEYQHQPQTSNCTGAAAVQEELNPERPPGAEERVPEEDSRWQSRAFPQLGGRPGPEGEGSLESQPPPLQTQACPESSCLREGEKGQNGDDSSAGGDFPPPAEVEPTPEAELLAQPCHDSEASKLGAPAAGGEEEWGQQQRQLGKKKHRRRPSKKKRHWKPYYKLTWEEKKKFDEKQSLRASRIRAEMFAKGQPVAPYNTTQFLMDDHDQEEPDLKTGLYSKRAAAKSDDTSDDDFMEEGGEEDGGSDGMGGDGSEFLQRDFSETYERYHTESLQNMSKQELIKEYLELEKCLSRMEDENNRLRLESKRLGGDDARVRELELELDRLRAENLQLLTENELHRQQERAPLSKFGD

Compound: CN(C)C1CC23CCC4(O2)C(=CCC2(C)C(c5ccc6ccncc6c5)=CCC24)C=C3C(O)C1O (centres unmarked) [dCA, didehydro-cortistatin A]
- interaction between Hexim-1 and 7SK snRNP: similarly detected

Compound: C[C@@](Cc1ccc(O)c(O)c1)(NN)C(=O)O.O [SCM, S-(−)-carbidopamonohydrate, reference compound]
- interaction between Hexim-1 and 7SK snRNP: similarly detected
